Strand notation (5' to 3'): a small letter for the sugar, then the base; units joined by * are phosphorothioate-linked, units joined directly phosphodiester-linked; [ ] holds rarer units or linkages, { } end groups; capitals alone tell only the bases. e = 2'-O-(2-methoxyethyl) (MOE); [5mC] = 5-methylcytosine; d = 2'-deoxy (DNA)
Test system: human SMAD7 mRNA
Test: Antisense inhibition of human SMAD7 mRNA expression in Hep3B cells by 5-10-5 MOE gapmers, single concentration, electroporation, RT-PCR (Example 1, Study 1 and 2)
Type: cell-based
Summary of the method: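 Readout is percent SMAD7 mRNA inhibition versus untreated cells, measured by qRT-PCR (RTS5062) and corrected for total RNA by RIBOGREEN. Oligonucleotide, 5,000 nM or 15,000 nM, was delivered by electroporation into Hep3B cells at 20,000 per well. RNA was collected about 24 h later.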

[1] = electroporation with 15,000 nM antisense oligonucleotide (Study 2), 5-10-5 MOE gapmers targeting SEQ ID NO: 1 and 2
[2] = electroporation, 15,000 nM antisense oligonucleotide (Study 2), 5-10-5 MOE gapmers targeting SEQ ID NO: 1 and 2
[3] = Study 2, electroporation with 15,000 nM antisense oligonucleotide, 5-10-5 MOE gapmers targeting SEQ ID NO: 1 and 2
[4] = electroporation, 5,000 nM, approximately 24 hours, relative to untreated control cells, gapmers targeting SEQ ID NO: 1 and 2

Substance	% inhibition of SMAD7 mRNA expression [2]	% Inhibition [3]	further results
771904 (antisense e[5mC]*e[5mC]*e[5mC]*eA*eA*d[5mC]*d[5mC]*d[5mC]*dA*dT*d[5mC]*dT*d[5mC]*d[5mC]*dA*e[5mC]*e[5mC]*eA*e[5mC]*e[5mC]) [compound 771904]	0%	–	% Inhibition of SMAD7 mRNA [1]: 0%
771532 (antisense eA*eG*eA*eA*eG*dA*dA*dA*dA*d[5mC]*d[5mC]*dA*dA*d[5mC]*d[5mC]*eA*eA*e[5mC]*eA*eA) [compound 771532]	–	–	% inhibition of SMAD7 mRNA expression [3]: 0%
771889 (antisense eT*eA*eA*eG*eA*dG*d[5mC]*dA*dT*dT*dT*dA*dT*d[5mC]*dT*e[5mC]*eG*e[5mC]*e[5mC]*eA) [compound 771889]	29%	–	–
771916 (antisense e[5mC]*e[5mC]*eT*eT*e[5mC]*dT*dT*dA*dA*dA*dT*dT*dT*dT*dT*eA*eA*eT*eT*eT) [compound 771916]	–	0%	–
771875 (antisense e[5mC]*e[5mC]*e[5mC]*e[5mC]*eG*dT*dG*d[5mC]*dA*d[5mC]*dT*d[5mC]*d[5mC]*d[5mC]*dA*eG*e[5mC]*e[5mC]*e[5mC]*eT) [compound 771875]	–	51%	% inhibition of SMAD7 mRNA expression [4]: 42%
771879 (antisense eA*eG*eG*eA*e[5mC]*d[5mC]*d[5mC]*dA*dA*dA*dG*dG*d[5mC]*dA*dG*eA*e[5mC]*e[5mC]*e[5mC]*eT) [compound 771879]	–	23%	–
771388 (antisense eG*e[5mC]*eG*e[5mC]*e[5mC]*d[5mC]*dT*dG*d[5mC]*dG*d[5mC]*dG*dG*d[5mC]*dT*e[5mC]*eT*e[5mC]*e[5mC]*eG) [compound 771388]	31%	–	–
771754 (antisense e[5mC]*e[5mC]*e[5mC]*eT*e[5mC]*dA*dG*dG*dT*dA*d[5mC]*dT*d[5mC]*dT*dG*e[5mC]*eA*e[5mC]*eA*eG) [compound 771754]	45%	–	–
771680 (antisense eA*eT*eT*eT*eA*dT*dA*dT*dT*dA*dA*dA*dG*d[5mC]*dA*eA*eA*eG*eT*eG) [compound 771680]	–	–	% Inhibition of SMAD7 mRNA [1]: 0%; % inhibition of SMAD7 mRNA expression [1]: 0%
771738 (antisense eG*eA*eG*e[5mC]*eT*dT*d[5mC]*d[5mC]*dT*dA*dA*dG*dT*dA*d[5mC]*eT*eG*eT*eT*eA) [compound 771738]	14%	–	–
771890 (antisense eA*eG*eT*e[5mC]*eT*dG*dA*dA*dG*d[5mC]*d[5mC]*d[5mC]*d[5mC]*d[5mC]*dA*eA*e[5mC]*e[5mC]*eT*eG) [compound 771890]	14%	–	–
771847 (antisense e[5mC]*eA*eT*e[5mC]*eA*d[5mC]*d[5mC]*dT*dT*d[5mC]*dG*dG*dA*d[5mC]*dA*eA*eG*e[5mC]*e[5mC]*eA) [compound 771847]	–	53%	–
771867 (antisense eA*e[5mC]*eT*eG*eG*dG*d[5mC]*dT*dT*d[5mC]*dA*dG*d[5mC]*dA*dA*eA*eG*eA*eT*eA) [compound 771867]	–	19%	% inhibition of SMAD7 mRNA expression [4]: 39%
771918 (antisense eA*eA*eG*eG*e[5mC]*d[5mC]*dA*d[5mC]*dA*dT*dT*dT*dT*dA*dG*eG*eT*eT*eA*eA) [compound 771918]	–	12%	–
771625 (antisense eG*e[5mC]*eT*eT*eA*dA*d[5mC]*dA*d[5mC]*dA*d[5mC]*dA*dG*dG*dA*eT*eG*eG*eG*eA) [compound 771625]	–	–	% inhibition of SMAD7 mRNA expression [1]: 48%
771920 (antisense eT*eT*eA*eT*eT*dT*dA*dA*dT*dT*dA*d[5mC]*d[5mC]*d[5mC]*dT*eG*e[5mC]*eT*e[5mC]*eA) [compound 771920]	13%	–	% Inhibition of SMAD7 mRNA [1]: 33%
771344 (antisense eA*eT*e[5mC]*eT*eG*dG*dA*d[5mC]*dA*dG*dT*d[5mC]*dA*dG*dT*eT*eG*eG*eT*eT) [compound 771344]	–	–	% inhibition of SMAD7 mRNA expression (electroporation, 15,000 nM, approximately 24 hours, gapmers targeting SEQ ID NO: 3 and 4): 17%
771899 (antisense e[5mC]*e[5mC]*eT*eG*eA*dT*dT*dG*dT*d[5mC]*dT*d[5mC]*d[5mC]*dA*d[5mC]*eA*eT*e[5mC]*e[5mC]*e[5mC]) [compound 771899]	–	47%	% inhibition of SMAD7 mRNA expression [4]: 57%
771542 (antisense eA*e[5mC]*eA*eA*eT*dT*d[5mC]*dT*dT*dT*dT*d[5mC]*dA*dT*dA*eA*eG*e[5mC]*eT*eA) [compound 771542]	–	–	% inhibition of SMAD7 mRNA expression [3]: 0%
771475 (antisense e[5mC]*eG*eT*e[5mC]*eA*dG*d[5mC]*dT*dG*dG*dA*dT*dG*d[5mC]*d[5mC]*eG*e[5mC]*eA*eG*e[5mC]) [compound 771475]	26%	–	–

Substance	% inhibition of SMAD7 mRNA expression [2]	% Inhibition [3]	further results
771358 (antisense eA*eG*eT*eT*eA*dA*dT*d[5mC]*dA*dT*dT*dA*d[5mC]*dT*d[5mC]*eG*eA*eG*eT*e[5mC]) [compound 771358]	–	36%	% inhibition of SMAD7 mRNA expression [4]: 53%
771830 (antisense eT*eT*eT*eA*eG*dG*dT*dA*dG*dA*dG*dT*dG*dG*d[5mC]*e[5mC]*eG*eG*eG*eA) [compound 771830]	–	40%	–
771425 (e[5mC]*e[5mC]*eT*eT*eG*d[5mC]*d[5mC]*d[5mC]*dA*dG*dG*d[5mC]*dA*dG*d[5mC]*eA*eT*e[5mC]*e[5mC]*eA; antisense) [compound 771425]	1%	–	% Inhibition of SMAD7 mRNA [1]: 15%
771367 (antisense e[5mC]*eT*eT*eG*eA*dT*dG*d[5mC]*dT*dG*dA*dT*dT*dA*dT*eT*eA*eA*eT*eG) [compound 771367]	–	0%	–
771684 (antisense eA*eT*eT*eT*eG*dG*d[5mC]*dA*dT*dT*dT*dG*dT*dT*dA*eT*eT*eT*eG*e[5mC]) [compound 771684]	–	–	% inhibition of SMAD7 mRNA expression [3]: 0%
771575 (antisense eA*e[5mC]*e[5mC]*eG*e[5mC]*dT*dT*dG*dG*dG*dA*d[5mC]*dT*dG*d[5mC]*eA*eA*eA*e[5mC]*e[5mC]) [compound 771575]	–	–	% inhibition of SMAD7 mRNA expression [3]: 47%
771948 (antisense e[5mC]*eA*e[5mC]*e[5mC]*e[5mC]*dA*dG*d[5mC]*dT*d[5mC]*dT*d[5mC]*dA*dA*dA*eT*e[5mC]*eA*eG*eT) [compound 771948]	–	0%	–
771528 (antisense eA*eA*eA*eG*eA*dG*dT*dT*dT*dG*d[5mC]*dA*dT*dG*dA*eA*eA*eA*eG*e[5mC]) [compound 771528]	4%	–	% Inhibition of SMAD7 mRNA [1]: 12%
771383 (antisense eT*eA*e[5mC]*eA*e[5mC]*dA*dA*dA*dT*dA*dA*dA*dA*dA*d[5mC]*eA*e[5mC]*e[5mC]*eA*eA) [compound 771383]	–	0%	–
771395 (antisense eG*e[5mC]*eG*e[5mC]*eT*d[5mC]*d[5mC]*dG*dG*d[5mC]*dT*dG*d[5mC]*d[5mC]*d[5mC]*e[5mC]*eA*e[5mC]*e[5mC]*e[5mC]) [compound 771395]	0%	–	% Inhibition of SMAD7 mRNA [1]: 34%
771373 (antisense eG*eA*eA*eA*eG*dA*d[5mC]*dA*dA*dA*d[5mC]*d[5mC]*dA*d[5mC]*dA*e[5mC]*eA*eT*eT*e[5mC]) [compound 771373]	32%	–	–
771807 (antisense eG*e[5mC]*e[5mC]*e[5mC]*eT*d[5mC]*dA*d[5mC]*dT*d[5mC]*d[5mC]*dA*d[5mC]*dA*dA*eT*eG*eG*e[5mC]*eA) [compound 771807]	–	51%	–
771860 (antisense e[5mC]*eT*eG*eG*e[5mC]*dT*d[5mC]*dA*dG*dA*dG*dG*d[5mC]*dT*dG*e[5mC]*eA*eG*eT*eG) [compound 771860]	–	20%	–
771779 (antisense eA*e[5mC]*eA*e[5mC]*eA*d[5mC]*dT*dG*d[5mC]*dT*dG*d[5mC]*d[5mC]*dT*dT*eT*eT*e[5mC]*eT*e[5mC]) [compound 771779]	–	33%	% inhibition of SMAD7 mRNA expression [4]: 53%
771616 (antisense eT*eG*e[5mC]*eT*eG*dA*dG*d[5mC]*dT*dG*dG*dT*dT*dT*dT*e[5mC]*eT*eA*eA*eG) [compound 771616]	–	–	% Inhibition of SMAD7 mRNA [1]: 33%; % inhibition of SMAD7 mRNA expression [1]: 0%
771524 (antisense eT*eT*eG*e[5mC]*eA*dT*dG*dA*dA*dA*dA*dG*d[5mC]*dA*dA*eG*e[5mC]*eA*e[5mC]*eT) [compound 771524]	–	–	% inhibition of SMAD7 mRNA expression [3]: 19%
771674 (antisense eA*eT*eA*eA*eA*dT*d[5mC]*dT*d[5mC]*dA*dG*dG*dT*dT*dT*eT*eT*eT*eT*eT) [compound 771674]	–	–	% inhibition of SMAD7 mRNA expression [1]: 0%
771612 (antisense eT*e[5mC]*e[5mC]*eG*eG*dG*dA*dA*dA*dA*dA*d[5mC]*d[5mC]*dT*dG*eA*eT*eG*eT*e[5mC]) [compound 771612]	–	–	% inhibition of SMAD7 mRNA expression [3]: 3%
771469 (antisense eT*eT*e[5mC]*eT*eG*d[5mC]*dA*d[5mC]*d[5mC]*dA*dG*d[5mC]*dT*dG*dA*e[5mC]*eT*e[5mC]*eT*eT) [compound 771469]	–	–	% inhibition of SMAD7 mRNA expression [3]: 13%

— patent US10517889B2, “Modulators of SMAD7 expression” (Ionis Pharmaceuticals, Inc., priority 2017, dated 2019)
